What was measured:
[1] = system: acid secretion; details: rats, particularly in combination with an activator of adenylate cyclase such as histamine; cited from earlier work
[2] = system: high affinity rolipram binding form of PDE IV (HPDE IV); assay: [3H]-rolipram binding assay (competition for high affinity site); parameters: species or system rat; details: for High/Low Ratio (IC50 high affinity form divided by IC50 low affinity form): HPDE IV IC50 / LPDE IV IC50; for IC50: competition with 1 nM [3H]-rolipram, 1 hour at 30° C.
Method: (§1) Inhibition of PDE IV catalytic activity can thus be used as an index of the potency of compounds at LPDE IV.
The assay was run for 1 hour at 30° C. The reaction was terminated and bound ligand was separated from free ligand using a Brandel cell harvester. Competition for the high affinity binding site was assessed under conditions that were identical to those used for measuring low affinity PDE activity, expect that [^3H]-cAMP was not present.

[3] = target: T1, low affinity rolipram binding form of PDE IV (LPDE IV), human monocyte PDE IV (Homo sapiens, UniProt P27815); assay: PDE IV catalytic activity assay (low affinity form); type: biochemical; details: 1 μM [3H]cAMP as substrate
T1 construct: made in house; host or cells: yeast
From the text: as §1

[4] = system: TNFα production from isolated human monocytes vs acid secretion in isolated rabbit parietal glands; assay: therapeutic index, in vitro comparison: suppression of TNFα production vs stimulation of acid secretion; type: cell-based
Method: To determine acid secretion, the gastric glands in combination with [^14C]-aminopyrine, various concentrations of selective PDE IV inhibitors, and a threshold concentration of histamine (0.3-1.0 μM) were incubated at 37° C. on a horizontal shaker (110 cycles/min) for 20 minutes according to the procedures of Sack and Spenney (1982). Samples were then centrifuged and radioactivity in aliquots of the supernatant fraction and pellet were determined. Aminopyrine ratios were calculated as described by Sack and Spenney (1982). The data were expressed as a percent of a response produced by a maximal concentration of histamine (100 μM). EC50 values were determined by linear interpolation using the maximum response obtained for each compound.
TNFα inhibition was assessed in human peripheral blood monocytes which were purified (Collata) from freshly obtained buffy coats or plasma-phoresis residues of blood from normal human donors. Monocytes were plated at density of 1×10^6 cells/ml medium/well in 24-well multi-dishes. […]
Levels of TNFα were measured using a ELISA (Winston) employing a murine monoclonal anti-human TNFα antibody (see below) as the capture antibody and a polyclonal rabbit anti-human TNFα as the second antibody. […] TNFα levels in samples were calculated from a standard curve generated with recombinant human TNFα produced in E. coli. […]

[5] = system: [3H]-rolipram binding sites in rat brain homogenates; assay: high affinity [3H]-rolipram binding sites in rat brain homogenates (Schneider 1986); details: Kd vs Ki
From the text: In 1986, Schneider and colleagues described the presence and characteristics of high affinity, stereoselective [^3H]-rolipram binding sites in rat brain homogenates, Although it was assumed that these binding sites represented the catalytic site of the rat brain “noncalmodulin-dependent, cAMP phosphodiesterase” (i.e. PDE IV), a striking anomaly was apparent in the data.

[6] = clinical studies; cited from earlier work

T1 sequence (P27815 1-686 isoform P27815-3): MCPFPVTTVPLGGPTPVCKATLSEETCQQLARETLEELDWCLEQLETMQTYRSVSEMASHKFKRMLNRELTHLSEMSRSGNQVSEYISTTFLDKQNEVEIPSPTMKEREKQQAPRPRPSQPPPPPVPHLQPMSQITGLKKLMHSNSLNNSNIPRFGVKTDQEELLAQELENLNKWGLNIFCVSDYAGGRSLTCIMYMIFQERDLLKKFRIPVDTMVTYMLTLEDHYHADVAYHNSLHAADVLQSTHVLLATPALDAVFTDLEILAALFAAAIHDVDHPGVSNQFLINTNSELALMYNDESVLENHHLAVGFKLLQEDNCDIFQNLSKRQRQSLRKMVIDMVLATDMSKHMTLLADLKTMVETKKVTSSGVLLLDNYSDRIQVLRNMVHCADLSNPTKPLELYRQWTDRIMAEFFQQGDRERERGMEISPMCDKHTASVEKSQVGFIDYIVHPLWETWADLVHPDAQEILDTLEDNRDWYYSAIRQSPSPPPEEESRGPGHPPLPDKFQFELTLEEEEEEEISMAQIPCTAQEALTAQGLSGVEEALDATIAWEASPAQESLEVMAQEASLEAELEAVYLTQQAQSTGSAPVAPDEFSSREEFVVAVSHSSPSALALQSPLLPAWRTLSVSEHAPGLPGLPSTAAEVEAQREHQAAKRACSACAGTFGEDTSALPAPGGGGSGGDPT

Compound: CCCCOc1cc(CC2CNC(=O)N2)ccc1OC (stereo not drawn) [Ro 20-1724]
- effect on acid secretion [1]: enhance acid secretion in rats

Compound: CC(C)Cn1c(=O)n(C)c(=O)c2[nH]cnc21 [IBMX, reference compound]
- High/Low Ratio (IC50 high affinity form divided by IC50 low affinity form) [2]: 0.698
- IC50 [2]: 20300 nM
- IC50 [3]: 29100 nM

Compound: COC(=O)C1CC(C#N)(c2ccc(OC(F)F)c(OCC3CC3)c2)CCC1=O (stereo not drawn) [2-carbomethoxy-4-cyano-4-(3-cyclopropylmethoxy-4-difluoromethoxyphenyl)cyclohexan-1-one]
- High/Low Ratio (IC50 high affinity form divided by IC50 low affinity form) [2]: 3.571
- IC50 [2]: 500 nM
- improvement in therapeutic index in comparison with R-rolipram [4]: 100 fold
- IC50 [3]: 140 nM

Compound: COc1ccc(C2CCN(Cc3ccc(NC(=NC#N)SC)cc3)C2=O)cc1OC1CCCC1 (stereo not drawn) [3-(cyclopentyloxy-4-methoxyphenyl)-1-(4-N′-[N2-cyano-S-methyl-isothioureido]benzyl)-2-pyrrolidone]
- High/Low Ratio (IC50 high affinity form divided by IC50 low affinity form) [2]: 0.30
- IC50 [2]: 30 nM
- IC50 [3]: 100 nM

Compound: OCCN(CCO)c1nc(N2CCCCC2)c2nc(N(CCO)CCO)nc(N3CCCCC3)c2n1 [dipyridamole, 2,2′,2″,2′″-[(4,8-dipiperidinopyrimido[5,4-d]pyrimidine-2-6-diyl)dinitrilo]tetraethanol, reference compound]
- High/Low Ratio (IC50 high affinity form divided by IC50 low affinity form) [2]: 6.25
- IC50 [2]: 32500 nM
- IC50 [3]: 5200 nM

Compound: COc1ccc(C2CNC(=O)C2)cc1OC1CCCC1 (stereo not drawn) [rolipram]
- difference in affinity for the binding site versus effect on catalytic activity [5]: 1000 fold
- effect on acid secretion [1]: enhance acid secretion in rats
- side effects [6]: has psychotropic activity and produces gastrointestinal effects, e.g., pyrosis, nausea and emesis

Compound: N#CC1(c2ccc(OC(F)F)c(OCC3CC3)c2)CCC(O)CC1 (stereo not drawn) [cis-[4-cyano-4-(3-cyclopropylmethoxy-4-difluoromethoxyphenyl)cyclohexan-1-ol]]
- IC50 [2]: 40 nM
- improvement in therapeutic index in comparison with R-rolipram [4]: 100 fold
- IC50 [3]: 21 nM

Compound: CCCCn1c(=O)c2c(ncn2CC(C)=O)n(CCCC)c1=O [denbufylline, 7-acetonyl,1,3-dibutylxanthine, reference compound]
- IC50 [2]: 50 nM
- side effects [6]: may include pyrosis, nausea and emesis

Compound: CCOC(=O)C=C1C[C@H](c2ccc(OC)c(OC3CCCC3)c2)CN1 [(R)-(+)-ethyl [4-(3-cyclopentyloxy-4-methoxyphenyl)pyrrolidine-2-ylidene]acetate]
- High/Low Ratio (IC50 high affinity form divided by IC50 low affinity form) [2]: 2.143
- IC50 [2]: 300 nM
- IC50 [3]: 140 nM

Compound: COc1ccc(C2CN(Cc3ccc(N)cc3)C(=O)N2)cc1OC1CCCC1 (stereo not drawn) [1-(4-aminobenzyl)-4-(3-cyclopentyloxy-4-methoxyphenyl)-2-imidazolidinone]
- High/Low Ratio (IC50 high affinity form divided by IC50 low affinity form) [2]: 0.07
- IC50 [2]: 10 nM
- IC50 [3]: 1400 nM

Compound: COc1ccc(CCNC(=O)C(N)=O)cc1OC1CCCC1 [N-[2-(3-cyclopentyloxy-4-methoxyphenyl)ethyl]oxamide]
- High/Low Ratio (IC50 high affinity form divided by IC50 low affinity form) [2]: 0.013
- IC50 [2]: 12 nM
- IC50 [3]: 890 nM

Compound: COc1ccc([C@@H]2CC[C@H](C(=O)O)C2)cc1OC1CCCC1 (relative stereo) [cis-[3-(3-cyclopentyloxy-4-methoxyphenyl)cyclopentane-1-carboxylate]]
- IC50 [3]: 2700 nM

Compound: COc1ccc(C2CCC(c3nnn[nH]3)C2)cc1OC1CCCC1 (stereo not drawn) [1-(5-tetrazole)-3-(3-cyclopentyloxy-4-methoxyphenyl)cyclopentane]
- High/Low Ratio (IC50 high affinity form divided by IC50 low affinity form) [2]: 0.0018
- IC50 [2]: 2 nM
- IC50 [3]: 1100 nM

Compound: CCOC(=O)C=C1C[C@@H](c2ccc(OC)c(OC3CCCC3)c2)CN1 [(S)-(-)-ethyl[4-(3-cyclopentyloxy-4-methoxphenyl)pyrrolidine-2-ylidene]acetate]
- High/Low Ratio (IC50 high affinity form divided by IC50 low affinity form) [2]: .98
- IC50 [2]: 450 nM
- IC50 [3]: 460 nM

Compound: COc1cc2c(cc1OC)-c1c/c(=N\c3c(C)cc(C)cc3C)n(C)c(=O)n1CC2 [trequinsin, 2,3,6,7-tetrahydro-2-(mesitylimino)-9,10 dimethoxy-3-methyl-4H-primido[6,1-a]isoquinoline-4-one, reference compound]
- IC50 [2]: 5000 nM

From patent US20020115111A1, “Compounds” (SmithKline Beecham Corporation, priority 1994, published 2002)
